pIC50: −log10 of the molar value. Like-named read-outs stand apart in the source and are kept apart here.
What was measured:
[1] = system: Onchocerca gutturosa adult male worms; test: Onchocerca gutturosa in vitro screening model: adult worm motility score and MTT/formazan viability; type: cell-based
Dirofilaria immitis = test: Heartworm screen Dirofilaria immitis (stage DiMF/DiL4 not specified in the tables); type: cell-based; conditions: read-out: D. immitis Activity class
[2] = read-out: O. gutt Activity class

Compound	pIC50 [1, 2]	pIC50 (Dirofilaria immitis)	pIC50 ([1]; read-out: O. gutt Activity class, in vitro motility)
COc1ccc(NS(=O)(=O)c2ccc(C)cn2)c2ncccc12 [Compound 123, N-(5-methoxy-quinolin-8-yl)-5-methylpyr-idine-2-sulfon-amide]	> 6.70	5.30 to 6.30	
Cc1cc(C#N)cc(S(=O)(=O)Nc2cccc3cccnc23)n1 [Compound 167, 4-cyano-6-methyl-N-(quinolin-8-yl)pyridine-2-sulfonamide]	6.30 to 6.70	5.30 to 6.30	
COc1cnc2c(NS(=O)(=O)c3ccc(C)cn3)cccc2c1 [Compound 121, N-(3-methoxy-quinolin-8-yl)-5-methylpyr-idine-2-sulfon-amide]	> 6.70	5.30 to 6.30	
COc1ccnc2c(NS(=O)(=O)c3ccc(C)cn3)cccc12 [Compound 124, N-(4-methoxy-quinolin-8-yl)-5-methylpyr-idine-2-sulfon-amide]	> 6.70	5.30 to 6.30	
O=S(=O)(Nc1cccc2cccnc12)c1cccc(C(F)(F)F)n1 [Compound 156, N-(quinolin-8-yl)-6-(trifluoromethyl) pyridine-2-sulfonamide]	> 6.70	5.30 to 6.30	
CCn1ccnc1S(=O)(=O)Nc1c(C)ccc2cccnc12 [Compound 102, 1-ethyl-N-(7-methylquin-olin-8-yl)-1H-imidazole-2-sulfonamide]	> 6.70	6.30 to 6.70	
CC(C)Oc1ccnc(S(=O)(=O)Nc2cccc3cccnc23)c1 [Compound 245, 4-isopropoxy-N-(quinolin-8-yl)pyridine-2-sulfonamide]	> 6.70	6.30 to 6.70	
O=S(=O)(Nc1c(Cl)ccc2cccnc12)c1ncccc1Cl [Compound 73, 3-chloro-N-(7-chloro-quinolin-8-yl)pyridine-2-sulfonamide]	> 6.70	5.30 to 6.30	
CCn1ccnc1S(=O)(=O)Nc1cccc2cc(C)cnc12 [Compound 105, 1-ethyl-N-(3-methylquin-olin-8-yl)-1H-imidazole-2-sulfonamide]	> 6.70	5.30 to 6.30	
Cc1ccc(S(=O)(=O)Nc2cccc3cc(Cl)cnc23)nc1 [Compound 120, N-(3-chloro-quinolin-8-yl)-5-methylpyr-idine-2-sulfon-amide]	6.30 to 6.70	6.30 to 6.70	
Cc1ccc(S(=O)(=O)Nc2cc(C)cc3cccnc23)nc1 [Compound 127, 5-methyl-N-(6-methylquin-olin-8-yl)pyr-idine-2-sulfon-amide]	> 6.70	6.30 to 6.70	
CC(C)c1cccnc1S(=O)(=O)Nc1c(Cl)ccc2cccnc12 [Compound 68, N-(7-chloro-quinolin-8-yl)-3-iso-propylpyr-idine-2-sulfonamide]	> 6.70	5.30 to 6.30	
COc1cc(NS(=O)(=O)c2ccc(C)cn2)c2ncccc2c1 [Compound 125, N-(6-methoxy-quinolin-8-yl)-5-methylpyr-idine-2-sulfon-amide]	> 6.70	5.30 to 6.30	
N#Cc1nc(Cl)ccc1S(=O)(=O)Nc1cccc2cccnc12 [Compound 169, 6-chloro-2-cyano-N-(quinolin-8-yl)pyridine-3-sulfonamide]	5.30 to 6.30	5.30 to 6.30	
Cc1ccc(S(=O)(=O)Nc2cccc3cc(C)cnc23)nc1 [Compound 113, 5-methyl-N-(3-methyl-quinolin-8-yl)-pyridine-2-sulfonamide]	> 6.70	6.30 to 6.70	
Cc1ccc(S(=O)(=O)Nc2ccc(F)c3cccnc23)nc1 [Compound 126, N-(5-fluoro-quinolin-8-yl)-5-methylpyr-idine-2-sulfon-amide]	5.30 to 6.30	6.30 to 6.70	
CN(C)c1cccnc1S(=O)(=O)Nc1c(Cl)ccc2cccnc12 [Compound 99, N-(7-chloro-quinolin-8-yl)-3-(dimethyl-amino)pyridine-2-sulfonamide]	5.30 to 6.30	5.30 to 6.30	
Cc1ncccc1S(=O)(=O)Nc1cccc2cccnc12 [Compound 155, 2-methyl-N-(quinolin-8-yl)pyridine-3-sulfonamide]	5.30 to 6.30	5.30 to 6.30	
Cc1cc(S(=O)(=O)Nc2cccc3cccnc23)cc(C)n1 [Compound 186, 2,6-dimethyl-N-(quinolin-8-yl)pyridine-4-sulfonamide]	6.30 to 6.70	5.30 to 6.30	
O=S(=O)(Nc1cccc2cccnc12)c1cc2ccccc2cn1 [Compound 270, N-(quinolin-8-yl)isoquinoline-3-sulfonamide]	> 6.70	6.30 to 6.70	
O=S(=O)(Nc1cccc2cccnc12)c1cnccn1 [Compound 271, N-(quinolin-8-yl)pyrazine-2-sulfonamide]	> 6.70	5.30 to 6.30	
CCn1ccnc1S(=O)(=O)Nc1cccc2ccc(C)nc12 [Compound 106, 1-ethyl-N-(2-methylquin-olin-8-yl)-1H-imidazole-2-sulfonamide]	5.30 to 6.30	6.30 to 6.70	
Cc1ccc(S(=O)(=O)Nc2c(Cl)ccc3cccnc23)nc1 [Compound 114, N-(7-chloro-quinolin-8-yl)-5-methylpyr-idine-2-sulfon-amide]	> 6.70	5.30 to 6.30	

Compound	pIC50 [1, 2]	pIC50 (Dirofilaria immitis)	pIC50 ([1]; read-out: O. gutt Activity class, in vitro motility)
CCn1ccnc1S(=O)(=O)Nc1ccc(F)c2cccnc12 [Compound 108, 1-ethyl-N-(5-fluoroquinolin-8-yl)-1H-imidazole-2-sulfonamide]	5.30 to 6.30	> 6.70	
N#CCc1cccc(S(=O)(=O)Nc2cccc3cccnc23)n1 [Compound 150, 6-(cyanomethyl)-N-(quinolin-8-yl)pyridine-2-sulfonamide]	6.30 to 6.70	5.30 to 6.30	
O=S(=O)(Nc1cccc2cccnc12)c1nccn1C1CC1(F)F (centres unmarked) [Compound 174, 1-(2,2-difluorocyclo-propyl)-N-(quinolin-8-yl)-1H-imidazole-2-sulfonamide]	> 6.70	6.30 to 6.70	
Cc1cccc(S(=O)(=O)Nc2cccc3cccnc23)n1 [Compound 272, 6-methyl-N-(quinolin-8-yl)pyridine-2-sulfonamide]	> 6.70	5.30 to 6.30	
O=S(=O)(Nc1cccc2cccnc12)c1nccn1C1CC1C(F)(F)F (centres unmarked) [Compound 171, N-(quinolin-8-yl)-1-(2-(trifluoromethyl)cyclopropyl)-1H-imidazole-2-sulfonamide]	> 6.70	6.30 to 6.70	
Cc1ccc(S(=O)(=O)Nc2ccc(Cl)c3cccnc23)nc1 [Compound 118, N-(5-chloro-quinolin-8-yl)-5-methylpyr-idine-2-sulfon-amide]	> 6.70	5.30 to 6.30	
O=S(=O)(Nc1ccc(F)c2cccnc12)c1ncccc1C1CC1 [Compound 48, 3-cyclo-propyl-N-(5-fluoroquin-olin-8-yl)-pyridine-2-sulfonamide]	> 6.70	5.30 to 6.30	
Cc1nc(S(=O)(=O)Nc2cccc3cccnc23)ccc1Cl [Compound 184, 5-chloro-6-methyl-N-(quinolin-8-yl)pyridine-2-sulfonamide]	> 6.70	6.30 to 6.70	
COc1ccnc2c(NS(=O)(=O)c3ncccc3C)cccc12 [Compound 14, N-(4-meth-oxyquinolin-8-yl)-3-meth-ylpyridine-2-sulfonamide]	5.30 to 6.30	5.30 to 6.30	
Cc1ccc(S(=O)(=O)Nc2cccc3c(Cl)ccnc23)nc1 [Compound 119, N-(4-chloro-quinolin-8-yl)-5-methylpyr-idine-2-sulfon-amide]	> 6.70	5.30 to 6.30	
CN(C)c1nccnc1S(=O)(=O)Nc1c(Cl)ccc2cccnc12 [Compound 76, N-(7-chloro-quinolin-8-yl)-3-(dimethyl-amino)pyr-azine-2-sulfonamide]	5.30 to 6.30	5.30 to 6.30	
Cc1cccnc1S(=O)(=O)Nc1cccc2c(C3CC3)ccnc12 [Compound 27, N-(4-cyclo-propylquin-olin-8-yl)-3-methylpyr-idine-2-sulfonamide]	5.30 to 6.30	5.30 to 6.30	
Cc1ccnc(S(=O)(=O)Nc2cccc3cccnc23)c1 [Compound 265, 4-methyl-N-(quinolin-8-yl)pyridine-2-sulfonamide]		6.30 to 6.70	> 6.70
Cc1cccnc1S(=O)(=O)Nc1cccc2c(OCC3CC3)ccnc12 [Compound 28, N-(4-(cyclo-propylmeth-oxy)quinolin-8-yl)-3-meth-ylpyridine-2-sulfonamide]	5.30 to 6.30	5.30 to 6.30	
COc1nccc(S(=O)(=O)Nc2cccc3cccnc23)n1 [Compound 197, 2-methoxy-N-(quinolin-8-yl)pyrimidine-4-sulfonamide]	6.30 to 6.70	5.30 to 6.30	
Cc1ccc(S(=O)(=O)Nc2cccc3nccnc23)nc1 [Compound 196, 5-methyl-N-(quinoxalin-5-yl)pyridine-2-sulfonamide]	6.30 to 6.70	6.30 to 6.70	
COc1ccnc(S(=O)(=O)Nc2cccc3cccnc23)c1 [Compound 222, 4-methoxy-N-(quinolin-8-yl)pyridine-2-sulfonamide]	> 6.70	6.30 to 6.70	
Nc1cccc(S(=O)(=O)Nc2cccc3cccnc23)n1 [Compound 264, 6-amino-N-(quinolin-8-yl)pyridin-2-sulfonamide]	5.30 to 6.30	5.30 to 6.30	
CCn1ccnc1S(=O)(=O)Nc1cccc2c(OC)ccnc12 [Compound 122, 1-ethyl-N-(4-methoxyquin-olin-8-yl)-1H-imidazole-2-sulfonamide]	> 6.70	5.30 to 6.30	
Cc1nc(Cl)ccc1S(=O)(=O)Nc1cccc2cccnc12 [Compound 179, 6-chloro-2-methyl-N-(quinolin-8-yl)pyridine-3-sulfonamide]	> 6.70	5.30 to 6.30	
Cc1cccnc1S(=O)(=O)Nc1cccc2cccnc12 [Compound 213, 3-methyl-N-(quinolin-8-yl)pyridine-2-sulfonamide]	> 6.70	5.30 to 6.30	
Cc1ccc(S(=O)(=O)Nc2cccc3cccnc23)c(C)n1 [Compound 187, 2,6-dimethyl-N-(quinolin-8-yl)pyridine-3-sulfonamide]	5.30 to 6.30	5.30 to 6.30	
O=S(=O)(Nc1cccc2cccnc12)c1ncccc1Cl [Compound 215, 3-chloro-N-(quinolin-8-yl)pyridine-2-sulfonamide]	> 6.70	5.30 to 6.30	

— patent US20240148744A1 (Celgene Corporation, priority 2021, published 2024)
